Data: patent publication US7691601B2, “Medium for detecting and/or identifying of microorganisms” (priority 2003, dated 2010)

What was measured:
[1] = test system: Staphylococcus aureus strains; assay: Coloration of Staphylococcus aureus colonies, castanospermine medium; format: cell-based; set-up: key to Colonies coloration: 0=no coloration; 0.5=trace of coloration; 1=weak coloration; 2=strong coloration; settings: for Colonies coloration: Table 6
Method: (§1) Seeding of Salmonella bacteria: 10 μl of stools are deposited onto a Petri dish, this stool suspension is mixed or not mixed with 10 μl of a suspension of Salmonella (0.5 McF) and isolated as 3 dials on a Petri dish. Various […] and various Salmonella strains originating from the applicant's collection are used according to this protocol. The Petri dishes are incubated at 37° C. for 24 hours. The appearance of a coloration at the point of deposit of the stool (“deposit” column) and at the Salmonella colony (“colony” column) is read according to a semi-quantitative scale: • 0=no coloration • 0.5=trace of coloration • 1=weak coloration • 2=strong coloration The results obtained are given in Table 1.
(§2) Preparation of the detection medium: 250 ml of the medium of Example 1, in which the O,O-diethyl p-nitrophenyl phosphate is replaced with various concentrations of castanospermine: 0, 1, 2, 4 and 8 g/l, are prepared according to the method of Example 1.
(§3) The various detection media thus obtained are poured into Petri dishes.
(§4) Seeding of Staphylococcus aureus strains: The Petri dishes are inoculated, incubated and read as in Example 1.

[2] = test system: free α-glucosidase in a sample (stools); assay: Coloration at the point of deposit of the stool, castanospermine medium; format: biochemical; set-up: key to Deposit coloration: 0=no coloration; 0.5=trace of coloration; 1=weak coloration; 2=strong coloration; settings: for Deposit coloration: Table 6
Method: as §1, §2, §3, §4

[3] = Colonies column read for stool without added strain, castanospermine medium; set-up: key: 0=no coloration; 0.5=trace of coloration; 1=weak coloration; 2=strong coloration; settings: Table 6, no strain
Method: as §1, §2, §3, §4

[4] = 1 g/l, stool A, Staphylococcus aureus No. 1
[5] = 1 g/l, stool B, Staphylococcus aureus no 2
[6] = 2 g/l, stool A, Staphylococcus aureus No. 1
[7] = 2 g/l, stool B, Staphylococcus aureus no 2
[8] = 4 g/l, stool A, Staphylococcus aureus No. 1
[9] = 4 g/l, stool B, Staphylococcus aureus no 2
[10] = 8 g/l, stool A, Staphylococcus aureus No. 1
[11] = 8 g/l, stool B, Staphylococcus aureus no 2

Substance: castanospermine
- Enzymes originating from the bacteria ([1]; Staphylococcus aureus colonies, summary in words): not inhibited
- Colonies coloration [1, 4]: 2
- Colonies coloration [1, 5]: 2
- Colonies coloration [1, 6]: 2
- Colonies coloration [1, 7]: 2
- Colonies coloration [1, 8]: 2
- Colonies coloration [1, 9]: 2
- Colonies coloration [1, 10]: 1
- Colonies coloration [1, 11]: 1
- Deposit coloration [2, 4]: 2
- Deposit coloration ([2]; 1 g/l, stool A, no strain): 1
- Deposit coloration [2, 5]: 2
- Deposit coloration ([2]; 1 g/l, stool B, no strain): 0.5
- Deposit coloration [2, 6]: 1
- Deposit coloration ([2]; 2 g/l, stool A, no strain): 1
- Deposit coloration [2, 7]: 1
- Deposit coloration ([2]; 2 g/l, stool B, no strain): 0.5
- Deposit coloration [2, 8]: 1
- Deposit coloration ([2]; 4 g/l, stool A, no strain): 0.5
- Deposit coloration [2, 9]: 0.5
- Deposit coloration ([2]; 4 g/l, stool B, no strain): 0
- Deposit coloration [2, 10]: 1
- Deposit coloration ([2]; 8 g/l, stool A, no strain): 0
- Deposit coloration [2, 11]: 0
- Deposit coloration ([2]; 8 g/l, stool B, no strain): 0
- Aspecific enzymatic reactions due to the presence of free enzymes ([2]; stools, Staphylococcus aureus identification, summary in words): greatly inhibited
- Colonies coloration ([3]; 1 g/l, stool A): 0
- Colonies coloration ([3]; 1 g/l, stool B): 0
- Colonies coloration ([3]; 2 g/l, stool A): 0
- Colonies coloration ([3]; 2 g/l, stool B): 0
- Colonies coloration ([3]; 4 g/l, stool A): 0
- Colonies coloration ([3]; 4 g/l, stool B): 0
- Colonies coloration ([3]; 8 g/l, stool A): 0
- Colonies coloration ([3]; 8 g/l, stool B): 0
